Assay results as given in patent US20250073209A1, “COVALENT TARGETING OF RhoA FOR CANCER THERAPY” (The University of Hong Kong, priority 2023, published 2025).

Tests used:
RhoA-GEF interactions = target: T1, RhoA-GEF interactions (Homo sapiens, UniProt P61586); assay: Co-immunoprecipitation of GST-RhoA with GEF-containing cell lysates; assay type: biochemical; settings: GST-RhoA with HEK293T cell lysates
T1 construct: host or cells: GEFs overexpressed in HEK293T lysates
Experimental: 10 μg of purified GST-RhoA was immobilized on Glutathione resin (Pierce) and incubated with CL16 in GTP-exchange buffer (20 mM HEPES, 150 mM NaCl, 5 mM MgCl2, pH 7.4) for 1 hour. Then, the mixture was centrifuged at 700g for 2 min and supernatant was discarded. 120 μg of total cell lysate with overexpression of GEF (Arhgefl p-115, Arhgefl2 LARG DH-PH domain, Arhgef13 Akap Lbc) was added to the resin. The mixture was put on an end-to-end rotator and incubated at 4° C. for 4 hours. The resin was then washed, eluted and subjected to immunoblotting.

[1] = tested on: normal colon fibroblast CCD-18Co cells; assay: MTT assay on normal colon fibroblasts; assay type: cell-based, human; settings: 48 h, compared with CRCs
Experimental: HCT116 cells was seeded at 2,500 cells/well; HT29, LOVO and SW620 cells were seeded at 4,000 cells/well; CCD-18Co cells were seeded at 10,000/well; and SW480 cells were seeded at 12,000 cells/well in 96 well plate in triplicates. Cells were treated with a concentration gradient of CL16 for 48 hours. Then, cells were incubated with 10% 3-(4,5-Dimethylthiazol-2-yl)-2,5-diphenyltetrazolium bromide (MTT) solution ([…]) in 37° C. for 4 hours. Cells were then lyzed in 10% SDS in […] HCl. Absorbance of individual well was measured at 570 nm. IC50 values were analyzed by nonlinear best-fit regression using Prism Graphpad 9.
As discussed above, overexpression/hyperactivity of RhoA associated with poor prognosis and aggressive behaviors of CRCs (FIG. 8A). Thus, the anti-cancer and anti-metastatic properties of CL16 in CRCs were explored. First, it was confirmed that genetic knockdown of RhoA by siRNA slowed down colony formation and migration of CRCs by using staining (data not shown) and wound healing assay (FIG. 4A). MTT assay was used to determine cell viability of CRCs and normal colon fibroblast CCD-18Co cells treated with CL16 for 48 h (n=3 different biological replicates/group). A much lower expression level of RhoA in normal colon fibroblast CCD-18Co cells was also determined, as compared to CRCs, by western blotting (data not shown). […]

HCT116 xenograft = assay: Mouse HCT116 xenograft model; assay type: in vivo; settings: nude mice, 10 mg/kg intraperitoneal
Experimental: (§1) FIG. 7A is a graph showing inhibition of tumor growth by CL16 in mouse HCT116 xenografts through intraperitoneal injection at 10 mg/kg (n=6 per group). FIG. 7B is a graph showing inhibition of tumor growth by CL16 in mouse HT29 xenografts through intraperitoneal injection at 10 mg/kg (n=7). FIG. 7C is a graph showing the body weight of mice with HT29 xenografts throughout the treatment with CL16. FIG. 7D is a graph showing inhibition of tumor growth by CL16 in mouse SW620 xenografts through intraperitoneal injection at 10 mg/kg (n=6 per group). FIG. 7E is a bar graph showing the tumor weight of harvested tumors from the treated mice with SW620 xenografts. FIG. 7F is a graph showing the body weight of mice with SW620 xenografts throughout the treatment with CL16. Statistical analysis using a two-tailed Student's t-test. *P<0.05.
(§2) 7-week-old mice with weight around 20 g were inoculated subcutaneously with HCT116 (2×10^6 cells per mouse) or HT29 (3×10^6 cells per mouse) cells, in serum-free RMPI or Matrigel in PBS respectively. […] The tumor volume and body weight of the nude mice were measured throughout the treatment. The tumor volume was calculated by the equation: Volume (mm^3)=1×w^2/2, where 1 and w were the length and width of the tumor. At the end of the treatment, the mice were sacrificed and the tumor weight was measured. […]

SW620 xenograft = assay: Mouse SW620 xenograft model; assay type: in vivo
Experimental: as §1, §2

Rac1 = Rac1 (Homo sapiens, UniProt P63000); assay: Rac1-GTP PAK-PBD pull-down in HT29 cells; assay type: cell-based; parameters: endogenous in cells; host or cells: HT29; settings: HT29, complete medium 24 h
Source text: The procedure is similar to that for RhoA-GTP assay, except that Rac1-GTP and Cdc42-GTP in CRC cells were first enriched by Rac1 Pull-Down Activation Assay Biochem Kit (Cytoskeleton #BK035) instead of using the RhoA kit. The enriched Rac1-GTP and Cdc42-GTP were then immunoblotted by Rac1/2/3 antibody (CST #2465) and Cdc42 antibody (CST #2462) respectively.
GTP loading onto RhoA is critical for the protein activation and mediating downstream signals. In view of the inhibitions of GDP-to-GTP exchange of RhoA by CL16 in vitro as discussed above, effects of CL16 on RhoA biology in colorectal cancer cells were examined. In the serum starvation-re-stimulation experiment, HCT116 cells were grown in serum-free medium with CL16, Rhosin or solvent control for 24 h, followed by stimulation with 10% FBS for 10 min. The cells were then lysed and the RhoA activity was assayed by the level of RhoA-GTP, which is the active form of RhoA. […] HT29 cells were incubated with solvent vehicle, CL16 or Rhosin in complete medium for 24 h. The cells were then washed, lysed and subjected to rhotekin pull-down for blotting RhoA-GTP, or PAK-PBD pull-down for blotting Rac1-GTP and Cdc42-GTP. Confocal fluorescence images from HCT116 and HT29 cells expressing FRET RhoA-biosensor in the serum starvation-restimulation experiment were taken.

T1 sequence (P61586 whole entry): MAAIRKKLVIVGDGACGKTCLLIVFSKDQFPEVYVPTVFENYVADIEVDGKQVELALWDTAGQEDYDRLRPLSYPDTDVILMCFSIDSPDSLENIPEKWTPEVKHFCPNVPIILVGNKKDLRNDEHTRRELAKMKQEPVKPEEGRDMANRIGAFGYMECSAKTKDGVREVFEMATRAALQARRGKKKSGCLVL

SMILES: O=C(CCl)N1N=C(c2cc3ccccc3o2)CC1c1ccco1 (stereo not drawn) [CL16]
- RhoA interactions with ARHGEF1, LARG DH-PH domain, AKAP13 and ARHGAP4s (RhoA-GEF interactions): disruption of RhoA interactions
- toxicity in normal cells (cell viability) [1]: much less toxic
- tumor growth vs vehicle control (HCT116 xenograft): significantly inhibited tumor growth
- body weight, treated vs untreated (SW620 xenograft; SW620 xenografts, FIG. 7F): no observable difference
- tumor growth vs vehicle control (SW620 xenograft; nude mice, 10 mg/kg intraperitoneal): significantly inhibited tumor growth
- Rac1 activity (Rac1-GTP) (Rac1): no significant changes
